Experimental data from PMC6099493, “Discovery of Matrinic Thiadiazole Derivatives as a Novel Family of Anti-Liver Fibrosis Agents via Repression of the TGFβ/Smad Pathway” (Molecules : A Journal of Synthetic Chemistry and Natural …, 2018).
Counter-ions that a name gives are not always drawn.

Assays:
[1] = test system: COL1A1 promotor; assay: COL1A1 promotor single luciferase reporter gene model in LX-2 (LX2-COL) cells; type: cell-based, human; details: LX-2 cells treated simultaneously with TGFβ1 and compound; for inhibition at 40 µM: Homo sapiens, read-out: Inhibition Percentage (inhibition rate of COL1A1 promotor's activity in LX2 cells)
[2] = MTT cytotoxicity / cell survival assay; type: cell-based; details: human, HepG2 cells, read-out: CC50 (cytotoxic concentration required to inhibit HepG2 cell growth by 50%)
Experimental: A single luciferase reporter gene detection model was applied to screen the inhibitory effects towards COL1A1 promotor of all target compounds in human hepatic stellate LX-2 cells at the concentration of 40 μM, taking EGCG and compound 1 as the positive controls. The LX2-COL monoclone cell line was treated simultaneously with TGFβ1 and a target compound [13]. The cytotoxicity was determined using MTT assay in HepG2 cells.
The cell survival was evaluated by MTT assay. HepG2 cells were seeded at density of 6 × 10^3 cells/well in 96-well plate. Cells were treated with various concentrations of matrinic derivate until the cells at 50% confluence. After 24 h of incubation, 20 µL of the MTT (5 mg/mL) solution was added into each plate and incubated for 4 h at 37 °C, 5% CO2. Subsequently, the culture supernatant was replaced with 150 µL DMSO to dissolve the formazan crystal. The absorbance at 570 nm was measured using a microplate reader (ELx800, BioTek Instruments, Winooski, VT, USA).

[3] = test system: α-SMA mRNA; assay: α-SMA mRNA level by real-time PCR in TGFβ1-stimulated LX-2 cells; type: cell-based, human; details: 80 μM, TGFβ1 2 ng/mL
Experimental: (§1) α-SMA is a more commonly recognized indicator for liver fibrosis, and it could be induced by a stimulation of TGFβ1 [22], therefore, the amounts of α-SMA were also evaluated.
(§2) LX-2 cells were seeded in 6-well plate, cultured in DMEM, containing 10% fetal bovine serum (FBS) in a 5% CO2 atmosphere at 37 °C. And serum-free culture was required until the cells at 90–95% confluence. After 24 h, cells were treated with TGFβ1 (2 ng/mL) and matrinic derivatives (80 μM) for 24 h. Total RNA from the LX-2 cells was extracted using Trizol reagent, purified by NucleoSpin RNA Clean-up. Reverse transcription was performed with a Transcriptor first strand cDNA synthesis kit. The cDNA was then analysis by ABI 7500 Fast Real-Time PCR System (ThermoFisher Scientific, Singapore) using TaqMan probes of TGFβ1, COL1A1, α-SMA, and GAPDH (sequence reserved by ABI, Foster City, CA ,USA) and FastStart Universal Probe master mix (Roche, Indianapolis, IN, USA).

[4] = test system: COL1A1 mRNA; assay: COL1A1 mRNA level by real-time PCR in TGFβ1-stimulated LX-2 cells; type: cell-based, human; details: 80 μM, TGFβ1 2 ng/mL
Experimental: (§3) Next, compounds 6i, 6l and 6n were chosen as the key compounds to verify their inhibitory effects against COL1A1. LX-2 cells were stimulated with TGFβ1 (2 ng/mL), and then treated with compounds 6i, 6l and 6n (80 μM) respectively, taking 1 as the control. Their anti-COL1A1 effects were evaluated on RNA level by real-time PCR amplification. […] Then their anti-COL1A1 effects were investigated on the protein level by western blot assays.
as §2

[5] = test system: COL1A1 protein; assay: COL1A1 protein level by western blot in LX-2 cells; type: cell-based; details: Homo sapiens, TGFβ1 2 ng/mL, read-out: COL1A1 protein level inhibition rate
Experimental: as §3
(§4) LX-2 cells were cultured as described above. Briefly, cells were washed with phosphate-buffered saline (PBS) and were lysed in radioimmunoprecipitation assay (RIPA) lysis for 30 min in 4 °C; the supernatant was collected after centrifugation at 12,000× g, 4 °C for 15 min. Equal amounts of protein were quantified with Bradford assay, separated by SDS-PAGE and transferred to polyvinylidene difluoride membrane. The membranes were blocked for one hour at room temperature in PBST containing 5% milk and probed with specific first antibodies overnight at room temperature. Membrane was washed 3 times by PBST, followed by horseradish peroxidase-conjugated secondary antibodies and GAPDH. The proteins were visualized using chemiluminescence reagents.

[6] = test system: α-SMA protein; assay: α-SMA protein level by western blot in LX-2 cells; type: cell-based; details: Homo sapiens, TGFβ1 2 ng/mL, read-out: α-SMA protein level inhibition rate
Experimental: as §1, §4

[7] = test system: Smad2 / phosphorylated Smad2 (TGFβ/Smad pathway); assay: Smad2 and p-Smad2 levels by western blot in LX-2 cells; type: cell-based, human
Experimental: Considering the key role of TGFβ/Smad pathway in activating COL1A1, the effects of the three compounds on Smad and phosphorylated Smad were then evaluated.
as §4

Compound	inhibition at 40 µM [1]	melting point	other results
Cc1ccc(S(=O)(=O)N2CC3CCCN4CCCC(C34)C2CCCc2nnc(NC(C)C)s2)cc1 (stereo not drawn) [Compound 6c, 12-N-p-Methylbenzenesulfonyl-3′-(N-iso-propyl-5-amino-1,3,4-thiadiazol-2-yl)-matrinic propane]	-84.2%	193 to 194 °C	
CC(=O)Nc1nnc(CCCC2C3CCCN4CCCC(CN2Cc2ccc(C)cc2)C34)s1 (stereo not drawn) [Compound 7d, 12-N-p-Methylbenzyl-3′-(5-acetylamino-1,3,4-thiadiazol-2-yl)-matrinic propane]	27%	226 °C (dec.)	
Nc1nnc(CCCC2C3CCCN4CCCC(CN2Cc2ccc(Br)cc2)C34)s1 (stereo not drawn) [Compound 6o, 12-N-p-Bromobenzyl-3′-(5-amino-1,3,4-thiadiazol-2-yl)-matrinic propane]	7.8%	193 to 194 °C	
CNc1nnc(CCCC2C3CCCN4CCCC(CN2Cc2ccccc2)C34)s1 (stereo not drawn) [Compound 6j, 12-N-Benzyl-3′-(N-methyl-5-amino-1,3,4-thiadiazol-2-yl)-matrinic propane]	29.5%	137 to 138 °C	
CN(C)c1nnc(CCCC2C3CCCN4CCCC(CN2S(=O)(=O)c2ccc(C(F)(F)F)cc2)C34)s1 (stereo not drawn) [Compound 6h, 12-N-p-Trifluoromethlybenzenesulfonyl-3′-(N,N-dimethyl-5-amino-1,3,4-thiadiazol-2-yl)-matrinic propane]	-35.2%	147 to 148 °C	
CC(=O)Nc1nnc(CCCC2C3CCCN4CCCC(CN2S(=O)(=O)c2ccc(C)cc2)C34)s1 (stereo not drawn) [Compound 7a, 12-N-p-Methylblenzenesulfonyl-3′-(5-acetylamino-1,3,4-thiadiazol-2-yl)-matrinic propane]	33.9%	273 °C (dec.)	
Cc1ccc(CN2CC3CCCN4CCCC(C2CCCC(=O)O)C34)cc1 (stereo not drawn) [Compound 5c, 12-N-p-Methylbenzyl matrinic acid]	-116%	106 to 108 °C	
CC(=O)Nc1nnc(CCCC2C3CCCN4CCCC(CN2Cc2ccccc2)C34)s1 (stereo not drawn) [Compound 7c, 12-N-Benzyl-3′-(5-acetylamino-1,3,4-thiadiazol-2-yl)-matrinic propane]	12.9%	188 to 189 °C	
CN(C)c1nnc(CCCC2C3CCCN4CCCC(CN2Cc2ccccc2)C34)s1 (stereo not drawn) [Compound 6k, 12-N-Benzyl-3′-(N,N-dimethyl-5-amino-1,3,4-thiadiazol-2-yl)-matrinic propane hydrochloride]	15.2%		
O=C(O)CCCC1C2CCCN3CCCC(CN1Cc1ccc(Br)cc1)C23 (stereo not drawn) [Compound 5d, 12-N-p-Bromobenzyl matrinic acid]	6.4%	134 to 135 °C	
CNc1nnc(CCCC2C3CCCN4CCCC(CN2Cc2ccc(C)cc2)C34)s1 (stereo not drawn) [Compound 6m, 12-N-p-Methylbenzyl-3′-(N-methyl-5-amino-1,3,4-thiadiazol-2-yl)-matrinic propane]	-29.6%	163 to 164 °C	
O=C(O)CCCC1C2CCCN3CCCC(CN1Cc1ccccc1)C23 (stereo not drawn) [Compound 5b, 12-N-Benzyl matrinic acid]	-33.6%	95 to 96 °C	
CNc1nnc(CCCC2C3CCCN4CCCC(CN2S(=O)(=O)c2ccc(C)cc2)C34)s1 (stereo not drawn) [Compound 6b, 12-N-p-Mmethlybenzenesulfonyl-3′-(N-methyl-5-amino-1,3,4-thiadiazol-2-yl)-matrinic propane]	12.8%	169 to 170 °C	
CN(C)c1nnc(CCCC2C3CCCN4CCCC(CN2Cc2ccccc2)C34)s1 (stereo not drawn) (as salt: hydrochloride) [Compound 6k, 12-N-Benzyl-3′-(N,N-dimethyl-5-amino-1,3,4-thiadiazol-2-yl)-matrinic propane hydrochloride]		189 to 190 °C	
Cc1ccc(S(=O)(=O)N2CC3CCCN4CCCC(C34)C2CCCc2nnc(N)s2)cc1 (stereo not drawn) [Compound 6a, 12-N-p-Methlybenzenesulfonyl-3′-(5-amino-1,3,4-thiadiazol-2-yl)-matrinic propane]	21.2%	237 °C (dec.)	CC50 at 24 h [2]: > 320 µM
CC(=O)Nc1nnc(CCCC2C3CCCN4CCCC(CN2S(=O)(=O)c2ccc(C(F)(F)F)cc2)C34)s1 (stereo not drawn) [Compound 7b, 12-N-p-Trifluoromethlybenzenesulfonyl-3′-(5-acetylamino-1,3,4-thiadiazol-2-yl)-matrinic propane]	-6%	197 °C (dec.)	
O=C(O[C@@H]1Cc2c(O)cc(O)cc2O[C@@H]1c1cc(O)c(O)c(O)c1)c1cc(O)c(O)c(O)c1 [EGCG, epigallocatechin gallate, reference compound]			Inhibition Percentage (inhibition rate of COL1A1 promotor's activity in LX2 cells) ([1]; 40 μM): 27.5% ± 7.9%
CNc1nnc(CCCC2C3CCCN4CCCC(CN2S(=O)(=O)c2ccc(C(F)(F)F)cc2)C34)s1 (stereo not drawn) [Compound 6g, 12-N-p-Trifluoromethlybenzenesulfonyl-3′-(N-methyl-5-amino-1,3,4-thiadiazol-2-yl)-matrinic propane]	6.1%	181 °C (dec.)	
Nc1nnc(CCCC2C3CCCN4CCCC(CN2S(=O)(=O)c2ccc(C(F)(F)F)cc2)C34)s1 (stereo not drawn) [Compound 6f, 12-N-p-Ttrifluoromethlybenzenesulfonyl-3′-(5-amino-1,3,4-thiadiazol-2-yl)-matrinic propane]	-19%	206 °C (dec.)	
Cc1ccc(S(=O)(=O)N2CC3CCCN4CCCC(C34)C2CCCC(=O)O)cc1 (stereo not drawn) [Compound 1, 12-N-p-Methylbenzenesulfonyl matrinic acid]	18.5%	239 to 240 °C	CC50 at 24 h [2]: > 320 µM; α-SMA mRNA level inhibitory rate [3]: 69.7%; COL1A1 mRNA level inhibitory rate [4]: 41.9%; inhibition at 80 µM [5]: 16.2%; inhibition at 80 µM [6]: 28.9%
O=C(O)CCCC1C2CCCN3CCCC(CN1S(=O)(=O)c1ccc(C(F)(F)F)cc1)C23 (stereo not drawn) [Compound 5a]	-3.7%		
Cc1ccc(CN2CC3CCCN4CCCC(C2CCCc2nnc(N)s2)C34)cc1 (stereo not drawn) [Compound 6l, 12-N-p-Methylbenzyl-3′-(5-amino-1,3,4-thiadiazol-2-yl)-matrinic propane]	38.7%	167 to 168 °C	CC50 at 24 h [2]: > 320 µM; α-SMA mRNA level inhibitory rate [3]: 82.5%; Effect on Smad level [7]: did not affect the Smad level; Effect on phosphorylation level of Smad2 (in words) [7]: repressed the phosphorylation level of Smad2 significantly; inhibition at 80 µM [5]: 99.3%; inhibition at 80 µM [6]: 93.8%
Cc1ccc(S(=O)(=O)N2CC3CCCN4CCCC(C34)C2CCCc2nnc(N(C)C)s2)cc1 (stereo not drawn) [Compound 6d, 12-N-p-Methylbenzenesulfonyl-3′-(N,N-dimethyl-5-amino-1,3,4-thiadiazol-2-yl)-matrinic propane]	-36.7%	142 to 143 °C	
